Patent US7199162B1, “Use of treosulfan for patient conditioning before bone marrow or blood stem cell transplantation” (Medac Gesellschaft fur Klinische Spezialpraparate mbH, priority 1999, dated 2007)

Experiments:
[1] = non-haematological toxicity profile; settings: general statement, in contrast to busulfan
[2] = pharmacokinetic properties after intravenous administration
[3] = system: donor-type chimerism in the recipient; assay: H-2-compatible allogenic bone-marrow transplantation trial (C.B10→B6); assay type: in vivo, mice; settings: substance alone, treosulfan in fractionated doses
Description: Treosulfan administered in fractionated doses was also evaluated in an H-2-compatible allogenic bone-marrow transplantation trial (C.B10→B6). In this trial, an immunological reaction resulting in rejection of the transplant must be prevented by conditioning with e.g. treosulfan, before growth of the transplant is possible.

[4] = system: haematopoietic stem cells in the host bone marrow; assay: cobblestone area forming cell assay (CAFC) on host bone marrow 24 hours after administration, murine bone-marrow transplantation model; assay type: in vivo; settings: recipient mice (BG-Gpi-1b), 3×2500 mg/kg daily fractionation, CAFC 24 hours after administration
Description: The recipient mice (BG-Gpi-1^b) were treated with 3×2500 mg/kg or 7500 mg/kg (corresponding to 22.5 g/m^2) treosulfan or 50 mg/kg busulfan. 24 hours after administration the elimination of the different haematopoietic stem cells in the host bone marrow was ascertained using the in vitro cobblestone area forming cell assays (CAFC; cf. Ploemacher et al., Blood 78 (1991) 2527–2533).

[5] = water solubility; assay type: physicochemical

Row | SMILES | non-haematological toxicity (liver, kidney, CNS, lung) [1] | pharmacokinetic properties [2] | induction of donor-type chimerism / conditioning before allogenic bone-marrow transplantation [3] | elimination of both the primitive and the "committed" progenitor cells [4] | water-solubility [5]
1 | CS(=O)(=O)OC[C@H](O)[C@@H](O)COS(C)(=O)=O [treosulfan[…]] | no significant liver, kidney, CNS or lung toxicity | reliable and linear pharmacokinetic properties | almost complete and stable donor-type chimerism | 3 to 5 powers of ten | consistent high water-solubility
2 | CS(=O)(=O)OCCCCOS(C)(=O)=O [busulfan] |  |  | unable to bring about effective conditioning |  | low solubility
